The nature of the assay: U-tube lucigenin (chloride) transport experiment. Conditions: 1 mM in chloroform, 20 mM MOPS, 100 mM NaCl, pH 7.4, 25 °C, up to 24 h, UV at 455 nm. The method, then: To assess if these compounds can act as cation carriers, U-tube experiments for sodium picrate transport were performed on 1, Cu(II)[1]Cl2 and Cu(II)[2]Cl2. […] Similarly, a U-tube experiment for chloride transport was performed using lucigenin.[4],[40]
5.7 Preparation of large unilamellar vesicles for CF release assays
A 50 mM 5(6)-carboxyfluorescein (CF) solution in MOPS buffer (20 mM MOPS, 100 mM NaCl, pH 7.4) was prepared by dissolving 5/6-CF in MOPS buffer, adding a sodium hydroxide (1M) solution dropwise until pH 11 was reached. The resulting solution was the slowly acidified to pH 7.4.
EYPC-cholesterol (4:1) 800 nm vesicles were prepared as described above, using the above mentioned 5(6)-carboxyfluorescein (CF) (50 mM) solution. […]
The U-tube was incubated in a water bath at 25 °C and the chloroform phase was stirred at 300 rpm during the entire experiment, ensuring efficient diffusion of any potential carrier-ion complex to the receiving phase. Aliquots (1 mL) were taken from the receiving phase and analysed for the presence of picrate by UV spectroscopy (at 356 nm). […]
Figure S11: U-tube metal picrate transport data for foldamer 1 (brown), Cu[2]Cl2 (black), Cu[1]Cl2 (green), and the control transporter, dibenzo-18-crown-6 (red). Absorbance at 356 nm. […]
Aliquots (1 mL) were taken from the receiving phase and analysed for the presence of lucigenin by UV spectroscopy (at 455 nm). […]

Where a SMILES comes first, the peptide text is derived from it.

As for `CC(C)(NC(=O)C(C)(C)NC(=O)C(C)(C)NC(=O)C(C)(C)NC(=O)C(C)(C)n1cc(CN(Cc2ccccn2)Cc2ccccn2)nn1)C(=O)NC(C)(C)C(=O)NC(C)(C)C(=O)NC(C)(C)C(=O)OCC[Si](C)(C)C` [foldamer 2] (HELM PEPTIDE1{[CC(C)(C(=O)[*:2])n1cc(CN(Cc2ccccn2)Cc2ccccn2)nn1].[Aib].[Aib].[Aib].[Aib].[Aib].[Aib].[Aib].[C[Si](C)(C)CCO[*:1]]}$$$$V2.0), the “chloride (lucigenin) transport through the organic phase” value is reported as “no chloride was carried through the organic phase”.

For the origin of these results see paper PMC7481839, “Switchable foldamer ion channels with antibacterial activity” (Chemical Science, 2020).
